SMILES strings stand for the structures.

The target of the assay is human IDO1 (Homo sapiens, UniProt P14902). The assay is described as follows: Assessment of human IDO-1 inhibitory activity in Hela cells (Interferon-gamma stimulated HeLa cells, Ehrlich reagent, absorbance 490 nm). The arrangement: endogenous in cells; host or cells: HeLa cells stimulated with interferon-gamma. Type of assay: cell-based. Conditions: Hela Human IDO-1 cellular assay. An outline of the steps: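 IDO activity induced by 18 h IFN-γ (human 10 ng/ml or murine 5 ng/ml, final) after 1 h compound pre-treatment of HeLa cells at 37 °C. Supernatant kynurenine detected via Ehrlich reagent absorbance at 490 nm following 3% TCA at 50 °C; IC50 set against no-IFN-γ and untreated-stimulated controls.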
Sequence of human IDO1 (P14902 whole entry): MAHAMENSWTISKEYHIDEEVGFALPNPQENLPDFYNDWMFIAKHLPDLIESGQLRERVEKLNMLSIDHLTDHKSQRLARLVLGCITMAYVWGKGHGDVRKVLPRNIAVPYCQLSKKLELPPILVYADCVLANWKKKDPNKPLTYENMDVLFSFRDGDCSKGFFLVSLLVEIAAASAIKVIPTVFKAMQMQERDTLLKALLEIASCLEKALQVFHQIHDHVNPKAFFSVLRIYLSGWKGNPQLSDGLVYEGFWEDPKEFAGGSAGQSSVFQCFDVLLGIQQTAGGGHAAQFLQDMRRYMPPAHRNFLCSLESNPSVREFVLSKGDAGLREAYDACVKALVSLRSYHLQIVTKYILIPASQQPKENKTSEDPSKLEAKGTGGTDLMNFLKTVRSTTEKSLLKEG
In turn, `CCN(c1ccc([C@@H](COC)CC(=O)O)cc1Nc1ccc(C#N)c(C)c1)C1CCOCC1` (single isomer, unassigned) [Example 354] displayed an IC50 of less than 50 nM. Next, `COCC(CC(=O)O)c1ccc(N2CCOC[C@@H]2C(C)C)c(NC(=O)Nc2ccc(C#N)cc2)c1` (single isomer, unassigned) [Example 932]: greater than 50 nM; `CCC(CC(=O)O)c1ccc(N(C)C2CCOCC2)c(Nc2ccc(C#N)cc2)c1` (single isomer, unassigned) [Example 870, 3-(3-((4-Cyanophenyl)amino)-4-(methyl(tetrahydro-2H-pyran-4-yl)amino)phenyl)pentanoic acid]: less than 5 nM. For `CCN(c1ccc([C@@H](COC)CC(=O)O)cc1Nc1ccc(Cl)cc1F)C1CCOCC1` (single isomer, unassigned) [Example 362] the value was less than 5 nM; for `CCC(CC(=O)O)c1ccc(N(CCOC)C2CCOCC2)c(Nc2cnc(OC)nc2)c1` (single isomer, unassigned) [Example 1259, 3-(4-((2-methoxyethyl)(tetrahydro-2H-pyran-4-yl)amino)-3-((2-methoxypyrimidin-5-yl)amino)phenyl)pentanoic acid], less than 50 nM; for `CCN(c1ccc(C(CC(=O)O)C2CC2)cc1Nc1ccc(OC)nc1)C1CCS(=O)(=O)CC1` (single isomer, unassigned) [Example 342, 3-cyclopropyl-3-(4-((1,1-dioxidotetrahydro-2H-thiopyran-4-yl)(ethyl)amino)-3-((6-methoxypyridin-3-yl)amino)phenyl)propanoic acid], less than 50 nM. Next, `CCN(c1ccc(C(C)CC(=O)O)cc1Nc1ccc(F)cc1)C1CCOCC1` (single isomer, unassigned) [Example 627, 3-(4-(ethyl(tetrahydro-2H-pyran-4-yl)amino)-3-((4-fluorophenyl)amino)phenyl) butanoic acid]: less than 5 nM; `CCN(c1ccc([C@H](CC(=O)O)C(F)(F)F)cc1NC(=O)Nc1ccc(Cl)cc1F)C1CCOCC1` (single isomer, unassigned) [Example 1267]: less than 5 nM. In turn, `CCN(c1ccc([C@@H](COC)CC(=O)O)cc1Nc1ccc(C#N)c(F)c1)C1CCOCC1` (single isomer, unassigned) [Example 353] yielded an IC50 of less than 5 nM. Next, `CCC(CC(=O)O)c1ccc(N(CC)C2CCS(=O)(=O)CC2)c(Nc2ccc(Cl)cc2)c1` (single isomer, unassigned) [Example 334 Enantiomer 1, 3-(3-((4-Chlorophenyl)amino)-4-((1,1-dioxidotetrahydro-2H-thiopyran-4-yl)(ethyl)amino)phenyl)pentanoic acid]: less than 5 nM; `CCN(c1ccc([C@@H](CC(=O)O)C(F)(F)F)cc1Nc1cnc(OC)nc1)C1CCOCC1` (single isomer, unassigned) [Example 601]: less than 5 nM; `CCN(c1ccc([C@@H](COC)CC(=O)O)cc1Nc1ccc(Cl)cn1)C1CCOCC1` (single isomer, unassigned) [Example 356]: less than 5 nM.

The molecule `CCOc1ncc(Nc2cc(C(C)CC(=O)O)ccc2N(CC)C2CCOCC2)cn1` (single isomer, unassigned) [Example 632, 3-(3-((2-ethoxypyrimidin-5-yl)amino)-4-(ethyl (tetrahydro-2H-pyran-4-yl)amino)phenyl)butanoic acid] came in with an IC50 of less than 50 nM. For `CCCN(c1ccc([C@H](COC)CC(=O)O)cc1NC(=O)Nc1ccc(Cl)cc1F)C1CCOCC1` (single isomer, unassigned) [Example 576] the value was less than 50 nM; for `CCCN(c1ccc([C@H](COC)CC(=O)O)cc1Nc1ccc2nc(C)sc2c1)C1CCOCC1` (single isomer, unassigned) [Example 570], less than 50 nM; for `CCN(c1ccc(C(CC(=O)O)C2CC2)cc1Nc1ccc(F)cc1)C1CCS(=O)(=O)CC1` (single isomer, unassigned) [Example 343, 3-cyclopropyl-3-(4-((1,1-dioxidotetrahydro-2H-thiopyran-4-yl)(ethyl)amino)-3-((4-fluorophenyl)amino)phenyl) propanoic acid], less than 5 nM. Next, `CCCN(c1ccc([C@@H](COC)CC(=O)O)cc1Nc1ccc(C#N)cc1)C1CCOCC1` (single isomer, unassigned) [Example 558]: less than 5 nM; `CCN(c1ccc(C(CC)(CC)CC(=O)O)cc1Nc1ccc(Cl)cc1)C1CCOCC1` [Example 26, 3-(3-((4-Chlorophenyl)amino)-4-(ethyl(tetrahydro-2H-pyran-4-yl)amino)phenyl)-3-ethylpentanoic acid]: less than 5 nM; `CCC(CC(=O)O)c1ccc(N(CC)C2CCOC2)c(NC(=O)Nc2ccc(Cl)cc2F)c1` (single isomer, unassigned) [Example 946 D2, 3-(3-(3-(4-Chloro-2-fluorophenyl)ureido)-4-(ethyl(tetrahydrofuran-3-yl)amino)phenyl)pentanoic acid]: less than 5 nM. In the case of `CCC(CC(=O)O)c1ccc(N2C[C@@H]3C[C@H]2CN3C(=O)OC)c(Nc2ccc(C#N)cc2)c1` (single isomer, unassigned) [Example 449], the IC50 was less than 50 nM. For `CCCN(c1ccc(C(COC)CC(=O)O)cc1Nc1ccc(Cl)cc1)C1CCS(=O)(=O)CC1` (single isomer, unassigned) [Example 185, 3-(3-((4-chlorophenyl)amino)-4-((1,1-dioxidotetrahydro-2H-thiopyran-4-yl)(propyl)amino)phenyl)-4-methoxybutanoic acid] the value was less than 5 nM; for `CCN(c1ccc(C2(CC(=O)O)CCOCC2)cc1Nc1ccc(OC)nc1)C1CCOCC1` [Example 156, 2-(4-(4-(ethyl(tetrahydro-2H-pyran-4-yl)amino)-3-((6-methoxypyridin-3-yl)amino)phenyl)tetrahydro-2H-pyran-4-yl)acetic acid], greater than 50 nM. For the molecule `CCC(CC(=O)O)c1ccc(N2CCC(C)CC2)c(NC(=O)Nc2ccc(C)cc2)c1` (single isomer, unassigned) [Example 46 Enantiomer 1, 3-(4-(4-Methylpiperidin-1-yl)-3-(3-(p-tolyl)ureido)phenyl)pentanoic acid], the IC50 was greater than 50 nM. For the molecule `CCN(c1ccc([C@@H](COC)CC(=O)O)cc1Nc1ccc(C#N)c(OCC(F)(F)F)c1)C1CCOCC1` (single isomer, unassigned) [Example 372], the IC50 is less than 50 nM. Next, `CCC1COCCN1c1ccc([C@H](COC)CC(=O)O)cc1Nc1ccc(C#N)cc1` (single isomer, unassigned) [Example 1303]: less than 50 nM. Turning to `CCN(c1ccc([C@@H](COC)CC(=O)O)cc1NC(=O)Nc1ccc(Cl)cc1F)C1CCOCC1` (single isomer, unassigned) [Example 423], the IC50 was greater than 50 nM. For `CCOc1ncc(Nc2cc(C(CC)CC(=O)O)ccc2N2C[C@@H]3C[C@H]2CN3C(=O)OC(C)(C)C)cn1` (single isomer, unassigned) [Example 448] the value was greater than 50 nM; for `CCC(CC(=O)O)c1ccc(N(CCOC)C2CCOCC2)c(NC(=O)Nc2ccc(Cl)cc2F)c1` (single isomer, unassigned) [Example 1265, 3-(3-(3-(4-chloro-2-fluorophenyl)ureido)-4-((2-methoxyethyl) (tetrahydro-2H-pyran-4-yl)amino)phenyl)pentanoic acid], less than 50 nM; for `COCC(CC(=O)O)c1cc(F)c(N(CC(C)C)CC(C)C)c(Nc2ccc3c(c2)OC(F)(F)O3)c1` (single isomer, unassigned) [Example 924, 3-(3-((2,2-difluorobenzo[d] [1,3]dioxol-5-yl)amino)-4-(diisobutylamino)-5-fluorophenyl)-4-methoxybutanoic acid], less than 50 nM. `CC[C@@H](CC(=O)O)c1ccc(N(CC)C2CCOCC2)c(Nc2cnc(N(C)C)nc2)c1` (single isomer, unassigned) [Example 459]: the IC50 is less than 50 nM. Next, `CCC(CC(=O)O)c1ccc(N(C)C2CCOCC2)c(Nc2cnc(OC)nc2)c1` (single isomer, unassigned) [Example 871, 3-(3-((2-methoxy-pyrimidin-5-yl)amino)-4-(methyl(tetra-hydro-2H-pyran-4-yl)amino)phenyl) pentanoic acid]: greater than 50 nM; `CCCN(c1ccc(C(CC)CC(=O)O)cc1Nc1cnc(OCC)nc1)C1CCS(=O)(=O)CC1` (single isomer, unassigned) [Example 13 Enantiomer 1, 3-(4-((1,1-Dioxidotetrahydro-2h-thiopyran-4-yl)(propyl)amino)-3-((2-ethoxypyrimidin-5-yl)amino)phenyl)pentanoic acid]: less than 50 nM; `CCC(CC(=O)O)c1ccc(N(CC)C2CCS(=O)(=O)CC2)c(Nc2ccc(C#N)cc2)c1` (single isomer, unassigned) [Example 335, 3-(3-((4-cyanophenyl)amino)-4-((1,1-dioxidotetrahydro-2H-thiopyran-4-yl)(ethyl)amino)phenyl) pentanoic acid]: less than 50 nM. As to `COCC(CC(=O)O)c1ccc(N2CCOC(C)C2)c(NC(=O)Nc2ccc(Cl)cc2F)c1` (single isomer, unassigned) [Example 1314 D1, 3-(3-(3-(4-Chloro-2-fluorophenyl)ureido)-4-(2-methylmorpholino)phenyl)-4-methoxybutanoic acid], the IC50 is greater than 50 nM. For `CCCN(c1ccc(C(CC)CC(=O)O)cc1Nc1ccc(C#N)cc1)C1CCS(=O)(=O)CC1` (single isomer, unassigned) [Example 12 Enantiomer 1, 3-(3-((4-Cyanophenyl)amino)-4-((1,1-dioxidotetrahydro-2H-thiopyran-4-yl)(propyl)amino)phenyl)pentanoic acid] the value was less than 5 nM.

In the case of `CCN(c1ccc([C@H](CC(=O)O)C(F)(F)F)cc1Nc1cnc(OC)nc1)C1CCOCC1` [Example 599, (S)-3-(4-(ethyl(tetrahydro-2H-pyran-4-yl)amino)-3-((2-methoxypyrimidin-5-yl)amino)phenyl)-4,4,4-trifluorobutanoic acid], the concentration for half-maximal inhibition (IC50) was less than 50 nM.

As a reminder, the IC50 is the concentration at which inhibition is half-maximal. High values mean weaker potency, low ones greater potency.

Source of the values: patent US9790169B2, “IDO inhibitors” (BRISTOL-MYERS SQUIBB COMPANY, priority 2015, dated 2017).
